# Measurements as given in PubChem BioAssay (NCI).
#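 Five concentrations, 48 hours, 96-well plates. Abbreviation: GI50, concentration required for 50% inhibition of growth. The concentration for full growth arrest is given as TGI.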
# Experiments:
# Assay in all cases: DTP human tumour cell line panel, 48 h
# [1] = tested on: MALME-3M melanoma
# [2] = tested on: IGROV1 ovarian
# [3] = tested on: CAKI-1 renal
# [4] = tested on: SNB-19 CNS
# [5] = tested on: EKVX NSCLC
# [6] = tested on: SW-620 colon
# [7] = tested on: SK-OV-3 ovarian
# [8] = tested on: SK-MEL-28 melanoma
# [9] = tested on: A549 NSCLC
# [10] = tested on: A498 renal
# [11] = tested on: M14 melanoma
# [12] = tested on: LOX IMVI melanoma
# [13] = tested on: UO-31 renal
# [14] = tested on: K-562 leukemia
# [15] = tested on: NCI-H23 lung
# [16] = tested on: NCI-H460 lung
# [17] = tested on: BT-549 breast
# [18] = tested on: NCI/ADR-RES ovarian
# [19] = tested on: U251 CNS
# [20] = tested on: SK-MEL-5 melanoma
# [21] = tested on: SF-539 CNS
# [22] = tested on: RPMI-8226 leukemia
# [23] = tested on: KM12 colon
# [24] = tested on: ACHN renal
# [25] = tested on: HOP-92 NSCLC
# [26] = tested on: NCI-H226 lung
# [27] = tested on: RXF 393 renal
# [28] = tested on: OVCAR-8 ovarian
# [29] = tested on: SNB-75 CNS
# [30] = tested on: HOP-62 NSCLC
# [31] = tested on: SN12C renal
# [32] = tested on: OVCAR-4 ovarian
# [33] = tested on: T-47D breast
# [34] = tested on: DU-145 prostate
# [35] = tested on: OVCAR-5 ovarian
# [36] = tested on: MDA-MB-231 breast
# [37] = tested on: HT29 colon
# [38] = tested on: MDA-N
# [39] = tested on: 786-0 renal
# [40] = tested on: TK-10 renal
# [41] = tested on: SF-295 CNS
# [42] = tested on: NCI-H522 lung
# [43] = tested on: MDA-MB-435
# [44] = tested on: OVCAR-3 ovarian
# [45] = tested on: SF-268 CNS
# [46] = tested on: MOLT-4 leukemia
# [47] = tested on: HCT-116 colon
# [48] = tested on: UACC-257 melanoma
# [49] = tested on: COLO 205 colon
# [50] = tested on: HCT-15 colon
# [51] = tested on: HCC-2998 colon
# [52] = tested on: SR leukemia
# [53] = tested on: PC-3 prostate
# [54] = tested on: SK-MEL-2 melanoma
# [55] = tested on: CCRF-CEM leukemia
# [56] = tested on: HS 578T breast
# [57] = tested on: UACC-62 melanoma
# [58] = tested on: HL-60(TB) leukemia
# [59] = tested on: MCF7 breast
structure (smiles),measurement,setting,value
Cn1c2ccccc2n2c3ncccc3c(=O)cc12,TGI,[1],> 100 µM
same,TGI,[2],> 100 µM
same,TGI,[3],> 100 µM
same,TGI,[4],> 100 µM
same,TGI,[5],> 100 µM
same,TGI,[6],> 100 µM
same,TGI,[7],> 100 µM
same,TGI,[8],> 100 µM
same,TGI,[9],> 100 µM
same,TGI,[10],> 100 µM
same,TGI,[11],> 100 µM
same,TGI,[12],> 100 µM
same,TGI,[13],> 100 µM
same,TGI,[14],> 100 µM
same,TGI,[15],> 100 µM
same,TGI,[16],> 100 µM
same,TGI,[17],> 100 µM
same,TGI,[18],> 100 µM
same,TGI,[19],> 100 µM
same,TGI,[20],> 100 µM
same,TGI,[21],> 100 µM
same,TGI,[22],> 100 µM
same,TGI,[23],> 100 µM
same,TGI,[24],> 100 µM
same,TGI,[25],> 100 µM
same,TGI,[26],> 100 µM
same,TGI,[27],> 100 µM
same,TGI,[28],> 100 µM
same,TGI,[29],> 100 µM
same,TGI,[30],> 100 µM
same,TGI,[31],> 100 µM
same,TGI,[32],> 100 µM
same,TGI,[33],> 100 µM
same,TGI,[34],> 100 µM
same,TGI,[35],> 100 µM
same,TGI,[36],> 100 µM
same,TGI,[37],> 100 µM
same,TGI,[38],> 100 µM
same,TGI,[39],> 100 µM
same,TGI,[40],> 100 µM
same,TGI,[41],> 100 µM
same,TGI,[42],> 100 µM
same,TGI,[43],> 100 µM
same,TGI,[44],> 100 µM
same,TGI,[45],> 100 µM
same,TGI,[46],> 100 µM
same,TGI,[47],85.9 µM
same,TGI,[48],> 100 µM
same,TGI,[49],> 100 µM
same,TGI,[50],> 100 µM
Cc1c(Nc2nccc3cc(CN4CC[C@@H](O)C4)cnc23)cccc1-c1cccc(-c2nc3cc(CN4CC[C@@H](C(=O)O)C4)cc(C#N)c3o2)c1C,GI50,[51],12.7 µM
same,TGI,[51],49 µM
same,GI50,[1],4.35 µM
same,TGI,[1],23.2 µM
same,GI50,[2],8.45 µM
same,TGI,[2],> 100 µM
same,GI50,[3],> 100 µM
same,TGI,[3],> 100 µM
same,GI50,[4],16.5 µM
same,TGI,[4],46.2 µM
same,GI50,[5],> 100 µM
same,TGI,[5],> 100 µM
same,GI50,[6],4.67 µM
same,TGI,[6],17.9 µM
same,GI50,[7],> 100 µM
same,TGI,[7],> 100 µM
same,GI50,[8],11.6 µM
same,TGI,[8],27.8 µM
same,GI50,[9],5.33 µM
same,TGI,[9],19.1 µM
same,GI50,[52],2.95 µM
same,TGI,[52],24.7 µM
same,GI50,[10],> 100 µM
same,TGI,[10],> 100 µM
same,GI50,[11],5.82 µM
same,TGI,[11],20.3 µM
same,GI50,[12],1.97 µM
same,TGI,[12],4.27 µM
same,GI50,[53],4.17 µM
same,TGI,[53],> 100 µM
same,GI50,[13],4.7 µM
same,TGI,[13],> 100 µM
same,GI50,[54],> 100 µM
same,TGI,[54],> 100 µM
same,GI50,[55],3.2 µM
same,TGI,[55],> 100 µM
same,GI50,[14],1.44 µM
same,TGI,[14],> 100 µM
same,GI50,[15],12 µM
same,TGI,[15],27.1 µM
same,GI50,[56],15.1 µM
same,TGI,[56],> 100 µM
same,GI50,[16],7.15 µM
same,TGI,[16],21.8 µM
same,GI50,[17],1.75 µM
same,TGI,[17],8.68 µM
same,GI50,[18],14.8 µM
same,TGI,[18],> 100 µM
same,GI50,[19],12.1 µM
same,TGI,[19],26.8 µM
same,GI50,[20],10.2 µM
same,TGI,[20],22.7 µM
same,GI50,[21],5.9 µM
same,TGI,[21],28.1 µM
same,GI50,[22],2.26 µM
same,TGI,[22],26.5 µM
same,GI50,[23],10.7 µM
same,TGI,[23],27.6 µM
same,GI50,[24],91.7 µM
same,TGI,[24],> 100 µM
same,GI50,[25],2 µM
same,TGI,[25],> 100 µM
same,GI50,[57],15.7 µM
same,TGI,[57],38.1 µM
same,GI50,[26],> 100 µM
same,TGI,[26],> 100 µM
same,GI50,[27],2 µM
same,TGI,[27],5.41 µM
same,GI50,[28],12.4 µM
same,TGI,[28],36.2 µM
same,GI50,[29],15.1 µM
same,TGI,[29],> 100 µM
same,GI50,[30],> 100 µM
same,TGI,[30],> 100 µM
same,GI50,[31],20.1 µM
same,TGI,[31],> 100 µM
same,GI50,[32],14.3 µM
same,TGI,[32],> 100 µM
same,GI50,[33],> 100 µM
same,TGI,[33],> 100 µM
same,GI50,[34],> 100 µM
same,TGI,[34],> 100 µM
same,GI50,[35],53.7 µM
same,TGI,[35],> 100 µM
same,GI50,[36],7.45 µM
same,TGI,[36],26.2 µM
same,GI50,[37],2.09 µM
same,TGI,[37],4.64 µM
same,GI50,[39],4.5 µM
same,TGI,[39],> 100 µM
same,GI50,[40],20.5 µM
same,TGI,[40],> 100 µM
same,GI50,[41],3.98 µM
same,TGI,[41],> 100 µM
same,GI50,[42],13.1 µM
same,TGI,[42],30.6 µM
same,GI50,[43],15.3 µM
same,TGI,[43],35.1 µM
same,GI50,[44],14.8 µM
same,TGI,[44],> 100 µM
same,GI50,[45],10.9 µM
same,TGI,[45],> 100 µM
same,GI50,[46],2.72 µM
same,TGI,[46],9.08 µM
same,GI50,[58],9.93 µM
same,TGI,[58],59.7 µM
same,GI50,[59],1.52 µM
same,TGI,[59],4.26 µM
same,GI50,[47],6.06 µM
same,TGI,[47],23.6 µM
same,GI50,[48],14.2 µM
same,TGI,[48],32.5 µM
same,GI50,[49],18.7 µM
same,TGI,[49],> 100 µM
same,GI50,[50],3.79 µM
same,TGI,[50],15.8 µM
Cc1ccc(S(=O)(=O)OCCC2CN(C(=O)OCc3ccccc3)C(C)(C)O2)cc1 (centres undefined),TGI,[51],72.7 µM
same,TGI,[1],43.3 µM
same,TGI,[2],> 100 µM
same,TGI,[3],> 100 µM
same,TGI,[4],27.3 µM
same,TGI,[5],> 100 µM
same,TGI,[6],> 100 µM
same,TGI,[7],> 100 µM
same,TGI,[8],82.1 µM
same,TGI,[9],> 100 µM
same,TGI,[52],> 100 µM
same,TGI,[10],> 100 µM
same,TGI,[11],38.1 µM
same,TGI,[12],> 100 µM
same,TGI,[53],50 µM
same,TGI,[13],15.4 µM
same,TGI,[54],94.5 µM
same,TGI,[55],> 100 µM
same,TGI,[14],> 100 µM
same,TGI,[15],13.5 µM
same,TGI,[16],14.3 µM
same,TGI,[17],5.97 µM
same,TGI,[18],15.7 µM
same,TGI,[19],> 100 µM
same,TGI,[20],8.76 µM
same,TGI,[21],> 100 µM
same,TGI,[22],32.4 µM
same,TGI,[23],12.4 µM
same,TGI,[24],64.9 µM
same,TGI,[25],> 100 µM
same,TGI,[57],> 100 µM
same,TGI,[26],4.35 µM
same,TGI,[27],> 100 µM
same,TGI,[28],29.4 µM
same,TGI,[31],> 100 µM
same,TGI,[32],> 100 µM
same,TGI,[34],> 100 µM
same,TGI,[35],> 100 µM
same,TGI,[36],> 100 µM
same,TGI,[38],> 100 µM
same,TGI,[39],> 100 µM
same,TGI,[40],> 100 µM
same,TGI,[41],> 100 µM
same,TGI,[42],20.1 µM
same,TGI,[43],22.5 µM
same,TGI,[44],> 100 µM
same,TGI,[46],47.8 µM
same,TGI,[58],30 µM
same,TGI,[59],33.7 µM
same,TGI,[47],> 100 µM
same,TGI,[48],> 100 µM
same,TGI,[49],> 100 µM
same,TGI,[50],32.5 µM
